Data published in patent publication US20110082162A1, “SYNERGISTIC FUNGICIDAL COMPOSITION CONTAINING 5-FLUOROCYTOSINE FOR FUNGAL CONTROL IN CEREALS” (DOW AGROSCIENCES LLC, priority 2009, published 2011).

Tests used:
[1] = system: Septoria tritici (SEPTTR; Mycosphaerella graminicola); experiment: 1-day protectant (1DP) test vs. leaf blotch of wheat, fungicide applied 1 day before inoculation; assay type: in vivo, Septoria tritici on wheat plants (variety Yuma); details: Zymoseptoria tritici, read-out: % DC Obs (percent disease control observed)
Experimental: (§1) Evaluation of Curative and Protectant Activity of Fungicide Mixtures vs. Leaf Blotch of Wheat (Mycosphaerella graminicola; anamorph: Septoria tritici; Bayer code: SEPTTR)
(§2) Wheat plants (variety Yuma) were grown from seed in a greenhouse in plastic pots with a surface area of 27.5 square centimeters (cm2) containing 50% mineral soil/50% soil-less Metro mix, with 8-12 seedlings per pot. The plants were employed for testing when the first leaf was fully emerged, which typically took 7 to 8 days after planting. Test plants were inoculated with an aqueous spore suspension of Septoria tritici either 3 days prior to (3-day curative test; 3DC) or 1 day after fungicide treatments (1-day protectant test; 1DP). After inoculation the plants were kept at 100% relative humidity (one day in a dark dew chamber followed by two days in a lighted mist chamber) to permit spores to germinate and infect the leaf. The plants were then transferred to a greenhouse until disease symptoms were fully expressed.
(§3) Treatments consisted of fungicides, including a compound of Formula I, epoxiconazole, prothioconazole, azoxystrobin, pyraclostrobin, penthiopyrad, isopyrazam, bixafen, boscalid, chlorothalonil and isobutyric acid (3S,6S,7R,8R)-8-benzyl-3-[(3-isobutyryloxymethoxy-4-methoxypyridine-2-carbonyl)-amino]-6-methyl-4,9-dioxo-[1,5]dioxonan-7-yl ester (compound A), applied either individually or as two-way mixtures with a compound of Formula I. 1% of water solution of a compound with Formula I was used in the tests. Technical grades of other materials were dissolved in acetone to make stock solutions, which were then used to perform three-fold dilutions in acetone either for each individual fungicide component or for the two-way mixtures. Desired fungicide rates were obtained after mixing dilutions with nine volumes of water containing 110 parts per million (ppm) Triton X-100. Ten milliliter (mL) fungicide solutions were applied onto six pots of plants using an automated booth sprayer, which utilized two 6218-1/4 JAUPM spray nozzles operating at 20 pounds per square inch (psi) set at opposing angles to cover both leaf surfaces. All sprayed plants were allowed to air dry prior to further handling. Control plants were sprayed in the same manner with the solvent blank.
(§4) When disease reached 80 to 100% on the control plants, infection levels were assessed on treated plants visually and scored on a scale of 0 to 100 percent. Percentage of disease control was then calculated using the ratio of disease on treated plants relative to control plants.
(§5) Colby's equation was used to determine the fungicidal effects expected from the mixtures. (See Colby, S. R. Calculation of the synergistic and antagonistic response of herbicide combinations. Weeds 1967, 15, 20-22.)
(§6) The following equation was used to calculate the expected activity of mixtures containing two active ingredients, A and B:
(§7) A=observed efficacy of active component A at the same concentration as used in the mixture;
(§8) B=observed efficacy of active component B at the same concentration as used in the mixture.

[2] = system: Septoria tritici (SEPTTR; Mycosphaerella graminicola); experiment: 3-day curative (3DC) test vs. leaf blotch of wheat, inoculation 3 days before fungicide treatment; assay type: in vivo, Septoria tritici on wheat plants (variety Yuma); details: Zymoseptoria tritici, read-out: % DC Obs (percent disease control observed); for pest or weed control at 0.6 ppm: applied alone at 0.6 ppm; for pest or weed control at 1.8 ppm: applied alone at 1.8 ppm
Experimental: as §1, §2, §3, §4, §5, §6, §7, §8

[3] = 1DP SEPTTR, applied alone at 0.6 ppm
[4] = 1DP SEPTTR, applied alone at 1.8 ppm

Fc1ccc([C@]2(Cn3cncn3)O[C@H]2c2ccccc2Cl)cc1 (racemic) [Epoxiconazole, rel-1-[[(2R,3S)-3-(2-chlorophenyl)-2-(4-fluorophenyl)oxiranyl]methyl]-1H-1,2,4-triazole]
pest or weed control at 0.0375 ppm ([1]; 1DP SEPTTR, applied alone at 0.0375 ppm): 15% | pest or weed control at 0.125 ppm ([1]; 1DP SEPTTR, applied alone at 0.125 ppm): 27%

CO/C=C(/C(=O)OC)c1ccccc1Oc1cc(Oc2ccccc2C#N)ncn1 [Azoxystrobin, methyl (αE)-2-[[6-(2-cyanophenoxy)-4-pyrimidinyl]oxy]-α-(methoxymethylene)benzeneacetate]
pest or weed control at 0.6 ppm [1, 3]: 21% | pest or weed control at 1.8 ppm [1, 4]: 32% | pest or weed control at 0.6 ppm ([2]; 3DC SEPTTR): 22% | pest or weed control at 1.8 ppm ([2]; 3DC SEPTTR): 59%

Cn1cc(C(=O)Nc2ccc(F)cc2-c2ccc(Cl)c(Cl)c2)c(C(F)F)n1 [Bixafen, N-(3′,4′-dichloro-5-fluoro[1,1′-biphenyl]-2-yl)-3-(difluoromethyl)-1-methyl-1H-pyrazole-4-carboxamide]
pest or weed control at 0.6 ppm [1]: 14% | pest or weed control at 1.8 ppm [1]: 71%

O=C(Nc1ccccc1-c1ccc(Cl)cc1)c1cccnc1Cl [Boscalid, 2-chloro-N-(4′-chloro[1,1′-biphenyl]-2-yl)-3-pyridinecarboxamide]
pest or weed control at 1.8 ppm [1, 4]: 9% | pest or weed control at 1.8 ppm ([2]; 3DC SEPTTR): 8%

N#Cc1c(Cl)c(Cl)c(Cl)c(C#N)c1Cl [Chlorothalonil, 2,4,5,6-tetrachloro-1,3-benzenedicarbonitrile]
pest or weed control at 13.5 ppm ([1]; 1DP SEPTTR, applied alone at 13.5 ppm): 13% | pest or weed control at 42 ppm ([1]; 1DP SEPTTR, applied alone at 42 ppm): 8% | pest or weed control at 13.5 ppm ([2]; 3DC SEPTTR, applied alone at 13.5 ppm): 0% | pest or weed control at 42 ppm ([2]; 3DC SEPTTR, applied alone at 42 ppm): 0%

COc1ccnc(C(=O)N[C@H]2COC(=O)[C@H](Cc3ccccc3)[C@@H](OC(=O)C(C)C)[C@H](C)OC2=O)c1OCOC(=O)C(C)C [Compound A, Isobutyric acid (3S,6S,7R,8R)-8-benzyl-3-[(3-isobutyryloxymethoxy-4-methoxy-pyridine-2-carbonyl)-amino]-6-methyl-4,9-dioxo-[1,5]dioxonan-7-yl ester]
pest or weed control at 1.35 ppm [2]: 6%

Nc1nc(O)ncc1F [Compound I, 5-FLUOROCYTOSINE]
pest or weed control at 0.03 ppm ([1]; 1DP SEPTTR, applied alone at 0.03 ppm): 13% | pest or weed control at 0.1 ppm ([1]; 1DP SEPTTR, applied alone at 0.1 ppm): 11% | pest or weed control at 0.3 ppm ([1]; 1DP SEPTTR, applied alone at 0.3 ppm): 8% | pest or weed control at 0.9 ppm ([1]; 1DP SEPTTR, applied alone at 0.9 ppm): 18% | pest or weed control at 2.8 ppm ([1]; 1DP SEPTTR, applied alone at 2.8 ppm): 79% | pest or weed control at 0.03 ppm ([2]; 3DC SEPTTR, applied alone at 0.03 ppm): 4% | pest or weed control at 0.1 ppm ([2]; 3DC SEPTTR, applied alone at 0.1 ppm): 33% | pest or weed control at 0.3 ppm ([2]; 3DC SEPTTR, applied alone at 0.3 ppm): 67% | pest or weed control at 0.9 ppm ([2]; 3DC SEPTTR, applied alone at 0.9 ppm): 75% | pest or weed control at 2.8 ppm ([2]; 3DC SEPTTR, applied alone at 2.8 ppm): 94%

CC(C)C1C2CCC1c1c(NC(=O)c3cn(C)nc3C(F)F)cccc12 (stereo not drawn) [Isopyrazam, 3-(difluoromethyl)-1-methyl-N-[1,2,3,4-tetrahydro-9-(1-methylethyl)-1,4-methanonaphthalen-5-yl]-1H-pyrazole-4-carboxamide]
pest or weed control at 0.06 ppm [1]: 5% | pest or weed control at 0.2 ppm [1]: 9% | pest or weed control at 0.6 ppm [1]: 19% | pest or weed control at 0.06 ppm [2]: 22%

CC(C)CC(C)c1sccc1NC(=O)c1cn(C)nc1C(F)(F)F (stereo not drawn) [Penthiopyrad, N-[2-(1,3-dimethylbutyl)-3-thienyl]-1-methyl-3-(trifluoromethyl)-1H-pyrazole-4-carboxamide]
pest or weed control at 0.6 ppm [1, 3]: 7% | pest or weed control at 1.8 ppm [1, 4]: 30% | pest or weed control at 1.8 ppm ([2]; 3DC SEPTTR): 24%

OC(Cc1ccccc1Cl)(Cn1[nH]cnc1=S)C1(Cl)CC1 (stereo not drawn) [Prothioconazole, 2-[2-(1-chlorocyclopropyl)-3-(2-chlorophenyl)-2-hydroxypropyl]-1,2-dihydro-3H-1,2,4-triazole-3-thione]
pest or weed control at 0.6 ppm [1, 3]: 18% | pest or weed control at 1.8 ppm [1, 4]: 25% | pest or weed control at 0.6 ppm ([2]; 3DC SEPTTR): 12% | pest or weed control at 1.8 ppm ([2]; 3DC SEPTTR): 25%
